Converted amounts (≈) assume the structure as drawn.
Experiments:
[1] = tested on: Enterococcus faecium (VanA VRE, ATCC BAA-2317); details: previously reported data; cited from earlier work
[2] = tested on: vancomycin-resistant Enterococcus faecalis (VanA VRE, BM4166); details: BM 4166; previously reported data; cited from earlier work
[3] = tested on: Enterococcus faecium (VanA VRE, ATCC BAA-2317); test: In vitro antimicrobial assay (MIC), VanA E. faecium; format: cell-based; details: for MIC: Enterococcus faecium, read-out: Antimicrobial Activity, MIC, VanA E. faecium; for antibiotic susceptibility profile of the strain: VanA E. faecium ATCC BAA-2317
From the text: (§1) One day before a study was run, fresh cultures of vancomycin-sensitive Staphylococcus aureus (VSSA strain ATCC 25923), methicillin and oxacillin-resistant Staphylococcus aureus subsp. aureus (MRSA strain ATCC 43300), vancomycin-resistant Enterococcus faecalis (VanA VRE, BM4166), Enterococcus faecium (VanA VRE, ATCC BAA-2317), vancomycin-resistant Enterococcus faecalis (VanB VRE, strain ATCC 51299), Escherichia coli (ATCC 25922), Acinetobacter baumannii (ATCC BAA-1710), Pseudomonas aeruginosa (ATCC 15442), Klebsiella pneumoniae (ATCC 700603) were inoculated and grown in an orbital shaker at 37° C. in 100% Mueller-Hinton broth (VSSA, MRSA and VanB VRE), 100% brain-heart infusion broth (VanA VRE, A. baumannii and K. pneumoniae) or 100% Luria broth (E. coli and P. aeruginosa). After 24 hours, the bacterial stock solutions were serially diluted with the culture medium (10% Mueller-Hinton broth for VSSA, MRSA and VanB VRE or 10% brain-heart infusion broth for VanA VRE A. baumannii and K. pneumoniae or 10% Luria Broth for E. coli and P. aeruginosa) to achieve a turbidity equivalent to a 1:100 dilution of a 0.5 M McFarland solution. This diluted bacterial stock solution was then inoculated in a 96-well V-shaped glass coated microtiter plate, supplemented with serial diluted aliquots of the antibiotic solution in DMSO (4 μL), to achieve a total assay volume of 0.1 mL. The plate was then incubated at 37° C. for 18 hours, after which minimal inhibitory concentrations (MICs) were determined by monitoring the cell growth (observed as a pellet) in the wells.
(§2) The lowest concentration of antibiotic (in μg/mL) capable of eliminating cell growth in the wells is the reported MIC value. The reported MIC values for the vancomycin analogues were determined against vancomycin as a standard in the first well.*
(§3) [*Clinical and Laboratory Standards Institute. Methods for Dilution Antimicrobial Susceptibility Tests for Bacteria That Grow Aerobically; Approved Standard, 7th ed.; CLSI document M07-A8; Clinical and Laboratory Standards Institute: Wayne, Pa., 2009.]

[4] = tested on: vancomycin-resistant Enterococcus faecalis (VanA VRE, BM4166); test: In vitro antimicrobial assay (MIC), VanA E. faecalis; format: cell-based; details: for MIC: Enterococcus faecalis, VRE, read-out: Antimicrobial Activity, MIC, VanA E. faecalis; for antibiotic susceptibility profile of the strain: VanA E. faecalis BM 4166
From the text: as §1, §2, §3

[5] = tested on: VanA VRE (E. faecalis BM 4166 and E. faecium ATCC BAA-2317); test: Cell wall permeability assay (propidium iodide uptake); format: cell-based, Enterococcus faecalis; Enterococcus faecium
From the text: The effect of the compounds on cell membrane permeability was examined by measuring cytoplasmic membrane uptake of the fluorescent probe propidium iodide in the same VanA vancomycin-resistant E. faecalis (BM 4166) and E. faecium (ATCC BAA-2317) strains. This fluorescent probe only enters cells with permeabilized cell membranes and is detected by the emission of fluorescence upon intracellular nucleic acid binding [Boulos et al., J Microbiol Methods 1999, 37(1):77-86].
Fresh, mid-log phase VanA VRE in pH 7.2 buffer at 25° C. were preincubated with propidium iodide (10 μM) for 5 minutes before the test compounds were added, monitoring the fluorescence emission at 617 nm (excitation at 535 nm) over time, both pre (5 minutes) and post (15 minutes) compound addition. Rapid and sustained increases in fluorescence intensity are observed immediately upon addition of test compounds that induce bacterial cell membrane permeability.
One day before a study was run, cultures of vancomycin-resistant Enterococcus faecalis (VanA VRE, BM4166) and Enterococcus faecium (VanA VRE, ATCC BAA-2317), were inoculated and grown in an orbital shaker at 37° C. in 100% brain-heart infusion broth for 12 hours. The above bacterial solution was subjected to a subculture to obtain fresh mid-log phase bacterial cells (total volume of bacterial suspension=7 mL, incubation time=6 hours, OD600=0.6). After the cultured bacteria were harvested (3000 rpm, 4° C., 20 minutes), the white bacterial precipitate was washed and resuspended in 5 mM glucose and 5 mM HEPES buffer (1:1, 500 μL, pH=7.2).
This bacterial suspension (130 μL) was charged into a 96-well black plate with a clear bottom (Corning 3650). The propidium iodide dye (10 μL, 150 μM DMSO solution) was added to the above suspension and the fluorescence was monitored at 25° C. for 5 minutes at 30 second intervals using a microplate reader (Molecular Devices®, Max Gemini EX) at an excitation wavelength of 535 nm and an emission wavelength of 617 nm. The test compound (150 μM, 10 μL) was added to the cell suspension and the fluorescence was monitored at 25° C. for an additional 15 minutes.

CNC(CC(C)C)C(=O)NC1C(=O)NC(CC(N)=O)C(=O)NC2C(=N)NC3C(=O)NC(C(=O)NC(C(=O)O)c4cc(O)cc(O)c4-c4cc3ccc4O)C(O)c3ccc(c(Cl)c3)Oc3cc2cc(c3OC2OC(CO)C(O)C(O)C2OC2CC(C)(N)C(O)C(C)O2)Oc2ccc(cc2Cl)[C@@H]1O (stereo partly drawn) [Compound 3]
Antimicrobial Activity, MIC, VanA E. faecium [1]: 0.5 µg/mL
Antimicrobial Activity, MIC, VanA E. faecalis [2]: 0.5 µg/mL

CN[C@H](CC(C)C)C(=O)N[C@H]1C(=O)N[C@@H](CC(N)=O)C(=O)N[C@H]2C(=O)N[C@@H]3C(=O)N[C@H](C(=O)N[C@H](C(=O)NCCCN(C)C)c4cc(O)cc(O)c4-c4cc3ccc4O)[C@H](O)c3ccc(c(Cl)c3)Oc3cc2cc(c3OC2OC(CO)C(O)[C@H](O)[C@@H]2O[C@H]2CC(C)(N)[C@H](O)[C@H](C)O2)Oc2ccc(cc2Cl)[C@H]1O (stereo partly drawn) [Compound 9]
MIC [3]: 500 µg/mL (≈ 326 µM)
MIC [4]: 500 µg/mL (≈ 326 µM)
induced cell membrane permeability (propidium uptake) ([5]; 10 μM compound): did not do so

CN[C@H](CC(C)C)C(=O)N[C@H]1C(=O)N[C@@H](CC(N)=O)C(=O)N[C@H]2C(=O)N[C@@H]3C(=O)N[C@H](C(=O)N[C@H](C(=O)NCCC[N+](C)(C)C)c4cc(O)cc(O)c4-c4cc3ccc4O)[C@H](O)c3ccc(c(Cl)c3)Oc3cc2cc(c3OC2OC(CO)C(O)[C@H](O)[C@@H]2O[C@H]2CC(C)(N)[C@H](O)[C@H](C)O2)Oc2ccc(cc2Cl)[C@H]1O (stereo partly drawn) [Compound 10]
MIC [3]: 126 µg/mL
MIC [4]: 63 µg/mL
induced cell membrane permeability (propidium uptake) ([5]; 10 μM compound): did not do so
induced cell membrane permeability (propidium uptake) ([5]; 100 μM compound): exhibited this induced permeability

CN[C@H](CC(C)C)C(=O)N[C@H]1C(=O)N[C@@H](CC(N)=O)C(=O)N[C@H]2C(=O)N[C@@H]3C(=O)N[C@H](C(=O)N[C@H](C(=O)NCCC[N+]4(C)CCCC4)c4cc(O)cc(O)c4-c4cc3ccc4O)[C@H](O)c3ccc(c(Cl)c3)Oc3cc2cc(c3OC2OC(CO)C(O)[C@H](O)[C@@H]2O[C@H]2CC(C)(N)[C@H](O)[C@H](C)O2)Oc2ccc(cc2Cl)[C@H]1O (stereo partly drawn) [Compound 11]
MIC [3]: 2 µg/mL
MIC [4]: 4 µg/mL
induced cell membrane permeability (propidium uptake) ([5]; 10 μM compound): produced pronounced, rapid cell membrane permeability

CN[C@H](CC(C)C)C(=O)N[C@H]1C(=O)N[C@@H](CC(N)=O)C(=O)N[C@H]2C(=O)N[C@@H]3C(=O)N[C@H](C(=O)N[C@H](C(=O)NCCCN(C)C)c4cc(O)cc(O)c4-c4cc3ccc4O)[C@H](O)c3ccc(c(Cl)c3)Oc3cc2cc(c3OC2OC(CO)C(O)[C@H](O)[C@@H]2O[C@H]2CC(C)(NCc3ccc(-c4ccc(Cl)cc4)cc3)[C@H](O)[C@H](C)O2)Oc2ccc(cc2Cl)[C@H]1O (stereo partly drawn) [Compound 14]
MIC [3]: 5 µg/mL (≈ 2.88 µM)
MIC [4]: 5 µg/mL (≈ 2.88 µM)

CN[C@H](CC(C)C)C(=O)N[C@H]1C(=O)N[C@@H](CC(N)=O)C(=O)N[C@H]2C(=O)N[C@@H]3C(=O)N[C@H](C(=O)N[C@H](C(=O)NCCC[N+]4(C)CCCC4)c4cc(O)cc(O)c4-c4cc3ccc4O)[C@H](O)c3ccc(c(Cl)c3)Oc3cc2cc(c3OC2OC(CO)C(O)[C@H](O)[C@@H]2O[C@H]2CC(C)(NCc3ccc(-c4ccc(Cl)cc4)cc3)[C@H](O)[C@H](C)O2)Oc2ccc(cc2Cl)[C@H]1O (stereo partly drawn) [Compound 16]
MIC [3]: 2 µg/mL
MIC [4]: 2 µg/mL

CCCCCCCCCCCCCC[N+](C)(C)CCCNC(=O)[C@H]1NC(=O)[C@H]2NC(=O)[C@@H](NC(=O)[C@@H]3NC(=O)[C@H](CC(N)=O)NC(=O)[C@H](NC(=O)[C@@H](CC(C)C)NC)[C@H](O)c4ccc(c(Cl)c4)Oc4cc3cc(c4OC3OC(CO)C(O)[C@H](O)[C@@H]3O[C@H]3CC(C)(NCc4ccc(-c5ccc(Cl)cc5)cc4)[C@H](O)[C@H](C)O3)Oc3ccc(cc3Cl)[C@H]2O)c2ccc(O)c(c2)-c2c(O)cc(O)cc21 (stereo partly drawn) [Compound 17]
MIC [3]: 2 µg/mL
MIC [4]: 2 µg/mL

CC1(C)S[C@@H]2[C@H](NC(=O)[C@H](N)c3ccccc3)C(=O)N2[C@H]1C(=O)O [ampicillin]
antibiotic susceptibility profile of the strain [3]: resistant

CC1(C)S[C@@H]2[C@H](NC(=O)Cc3ccccc3)C(=O)N2[C@H]1C(=O)O [benzylpenicillin]
antibiotic susceptibility profile of the strain [3]: resistant

O=C(N[C@H](CO)[C@H](O)c1ccc([N+](=O)[O-])cc1)C(Cl)Cl [chloramphenicol]
antibiotic susceptibility profile of the strain [4]: resistant

CCN(CC)CCS(=O)(=O)[C@@H]1CCN2C(=O)c3coc(n3)CC(=O)C[C@H](O)/C=C(C)/C=C/CNC(=O)/C=C/[C@@H](C)[C@@H](C(C)C)OC(=O)[C@@H]12 [dalfopristine]
antibiotic susceptibility profile of the strain [3]: sensitive

CC[C@H]1OC(=O)[C@H](C)[C@@H](O[C@H]2C[C@@](C)(OC)[C@@H](O)[C@H](C)O2)[C@H](C)[C@@H](O[C@@H]2O[C@H](C)C[C@H](N(C)C)[C@H]2O)[C@](C)(O)C[C@@H](C)C(=O)[C@H](C)[C@@H](O)[C@]1(C)O [erythromycin]
antibiotic susceptibility profile of the strain [3]: resistant
antibiotic susceptibility profile of the strain [4]: resistant

gentamicin
antibiotic susceptibility profile of the strain [4]: resistant

teicoplanin
antibiotic susceptibility profile of the strain [3]: resistant
antibiotic susceptibility profile of the strain [4]: resistant

Source: patent US10934326B2, “Peripheral modifications on pocket-redesigned vancomycin analogs synergistically improve antimicrobial potency and durability” (priority 2016, dated 2021)
